Laboratory results reported in patent US20230183188A1, “ENPP1 MODULATORS AND USES THEREOF” (Vir Biotechnology, Inc., priority 2020, published 2023).

Biological target: T1, recombinant protein containing the human ENPP1 enzymatic domain (Homo sapiens, UniProt P22413)
T1 construct: recombinant protein containing the human ENPP1 enzymatic domain; purchased R&D Systems 6136-EN-010
T1 sequence (P22413 191-591 limits assumed): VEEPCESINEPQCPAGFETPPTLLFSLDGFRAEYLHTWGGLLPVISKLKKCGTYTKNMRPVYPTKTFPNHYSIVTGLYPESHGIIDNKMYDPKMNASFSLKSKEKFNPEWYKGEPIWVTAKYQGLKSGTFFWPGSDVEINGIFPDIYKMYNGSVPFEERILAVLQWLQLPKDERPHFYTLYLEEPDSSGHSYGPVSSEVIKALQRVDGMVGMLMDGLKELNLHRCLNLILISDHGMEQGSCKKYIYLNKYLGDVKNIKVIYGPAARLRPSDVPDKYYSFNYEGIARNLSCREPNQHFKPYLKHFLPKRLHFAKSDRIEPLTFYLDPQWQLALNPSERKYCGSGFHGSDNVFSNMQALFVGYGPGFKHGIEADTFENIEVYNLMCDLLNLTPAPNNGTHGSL
Experiment: ENPP1 Enzymatic Inhibition Assay (2′3′-cGAMP substrate, AMP-Glo luminescence)
Format: biochemical
Settings: 1 nM ENPP1, 20 uM 2′3′-cGAMP substrate, 30 minutes at 37° C.
Experimental: The inhibition of ENPP1's phosphodiesterase activity were tested in a purified enzymatic assay using 2′3′-cyclic GAMP as a substrate which allowed for the release of cleaved AMP to be monitored using a luminescent assay.
Putative inhibitors were diluted in assay buffer (50 mM Tris pH 8.0, 250 mM NaCl, 0.5 mM CaCl2, 1 uM ZnCl2, 1% DMSO) and pre-incubated for 15 minutes at 37° C. with recombinant protein containing the human ENPP1 enzymatic domain (R&D Systems cat. #6136-EN-010). The enzymatic reaction was initiated upon addition of the 2′3′-cGAMP substrate. The final reaction concentrations were 1 nM ENPP1 and 20 uM 2′3′-cGAMP substrate in a 25 uL volume. Inhibitor concentrations ranged from 10 uM to 0.2 nM. The reaction was incubated for 30 minutes at 37° C.
After reacting for 30 minutes, the amount of AMP generated from the cleavage of 2′3′-cGAMP was determined using the Promega AMP-Glo method according to the manufacturer's protocol. First, AMP-Glo reagent 1 was added and incubated with the reaction mix for 1 hour at room temperature. Second, AMP Detection solution was added and the mixture was incubated for an additional hour. The luminescence of the mixture was read on a Perkin Elmer Ensight plate reader.
The maximum and minimum levels of ENPP1 activity were established using no inhibitor and no enzyme controls, respectively. The activity observed using ENPP1 inhibitors was quantified as the percent of activity relative to these controls. IC50 values were calculated using GraphPad Prism by fitting a sigmoidal variable slope nonlinear regression model to the data.

Row | Structure (SMILES) | IC50 [µM]
1 | COc1ccc2c(Oc3ccc(S(N)(=O)=NCc4cccnc4)cc3)ccnc2c1 (centres unmarked) [Compound 27, 4-((7-methoxyquinolin-4-yl)oxy)-N′-(pyridin-3-ylmethyl)benzenesulfonimidamide] | 0.01 to 0.1
2 | COc1ccc2c(Oc3ccc(S(N)(=O)=NCC(C)O)cc3)ccnc2c1 (single isomer, unassigned) [Compound 10, N′-(2-hydroxypropyl)-4-((7-methoxyquinolin-4-yl)oxy)benzenesulfonimidamide] | < 0.01
3 | COc1ccc2c(Oc3ccc(S(N)(=O)=NCCOc4ccncc4)cc3)ccnc2c1 (centres unmarked) [Compound 14, 4-((7-methoxyquinolin-4-yl)oxy)-N′-(2-(pyridin-4-yloxy)ethyl)benzenesulfonimidamide] | < 0.01
4 | COc1ccc2c(Oc3ccc(S(N)(=O)=NCCOc4ccccc4)cc3)ccnc2c1 (centres unmarked) [Compound 34, 4-((7-methoxyquinolin-4-yl)oxy)-N′-(2-phenoxyethyl)benzenesulfonimidamide] | 0.01 to 0.1
5 | COc1ccc2c(Oc3ccc(S(N)(=O)=NCC4CC4)cc3)ccnc2c1 (centres unmarked) [Compound 1, N′-(cyclopropylmethyl)-4-((7-methoxyquinolin-4-yl)oxy)benzenesulfonimidamide] | < 0.01
6 | CCN=S(N)(=O)c1ccc(Oc2ccnc3cc(OC)ccc23)cc1 (centres unmarked) [Compound 22, N′-ethyl-4-((7-methoxyquinolin-4-yl)oxy)benzenesulfonimidamide] | 0.01 to 0.1
7 | COc1ccc2c(Oc3ccc(S(N)(=O)=NC4(c5ccccn5)CC4)cc3)ccnc2c1 (centres unmarked) [Compound 33, 4-((7-methoxyquinolin-4-yl)oxy)-N′-(1-(pyridin-2-yl)cyclopropyl)benzenesulfonimidamide] | < 0.01

More lines, now with the values ahead:

Row | IC50 [µM] | Structure (SMILES)
8 | 0.01 to 0.1 | COc1ccc2c(Oc3ccc(S(N)(=O)=NC[C@@H]4CCCN4C(=O)OC(C)(C)C)cc3)ccnc2c1 (stereo partly drawn) [Compound 43, tert-butyl (2S)-2-(((amino(4-((7-methoxyquinolin-4-yl)oxy)phenyl)(oxo)-I^6-sulfaneylidene)amino)methyl) pyrrolidine-1-carboxylate]
9 | < 0.01 | COc1ccc2c(Oc3ccc(S(=N)(=O)NC[C@H](O)CO)cc3)ccnc2c1 (single isomer, unassigned) [Compound 46]
10 | 0.01 to 0.1 | COc1ccc2c(Oc3ccc(S(N)(=O)=NCCNC(=O)OC(C)(C)C)cc3)ccnc2c1 (centres unmarked) [Compound 39, tert-butyl (2-((amino(4-((7-methoxyquinolin-4-yl)oxy)phenyl)(oxo)-λ^6-sulfaneylidene)amino)ethyl) carbamate]
11 | < 0.01 | COc1ccc2c(Oc3ccc(S(N)(=O)=NCCNC(C)=O)cc3)ccnc2c1 (centres unmarked) [Compound 41, N-(2-((amino(4-((7-methoxyquinolin-4-yl)oxy)phenyl)(oxo)-I^6-sulfaneylidene)amino)ethyl)acetamide]
12 | 0.01 to 0.1 | COc1ccc2c(Nc3ccc(S(=N)(=O)N(C)C)cc3)ncnc2c1 (centres unmarked) [Compound 42, 4-((7-methoxyquinazolin-4-yl)amino)-N,N-dimethylbenzenesulfonimidamide]
13 | < 0.01 | COc1ccc2c(Oc3ccc(S(N)(=O)=NCc4ccc(-c5ccncc5)cc4)cc3)ccnc2c1 (centres unmarked) [Compound 35, 4-((7-methoxyquinolin-4-yl)oxy)-N′-(4-(pyridin-4-yl)benzyl)benzenesulfonimidamide]
14 | < 0.01 | COc1ccc2c(Oc3ccc(S(N)(=O)=NCC4CCC4)cc3)ccnc2c1 (centres unmarked) [Compound 36, N′-(cyclobutylmethyl)-4-((7-methoxyquinolin-4-yl)oxy)benzenesulfonimidamide]
